Values belong to the compound of their own block, whether it stands above or below them. The source made the active and inactive calls.
Assays:
[1] = biological target: T1, Calpain-2 catalytic subunit (Sus scrofa, UniProt P43367); assay: m-calpain protease blockers, concentration series – biochemical, fluorogenic peptide substrate, dose response (AID 1420); assay type: functional
T1 sequence (P43367 whole entry): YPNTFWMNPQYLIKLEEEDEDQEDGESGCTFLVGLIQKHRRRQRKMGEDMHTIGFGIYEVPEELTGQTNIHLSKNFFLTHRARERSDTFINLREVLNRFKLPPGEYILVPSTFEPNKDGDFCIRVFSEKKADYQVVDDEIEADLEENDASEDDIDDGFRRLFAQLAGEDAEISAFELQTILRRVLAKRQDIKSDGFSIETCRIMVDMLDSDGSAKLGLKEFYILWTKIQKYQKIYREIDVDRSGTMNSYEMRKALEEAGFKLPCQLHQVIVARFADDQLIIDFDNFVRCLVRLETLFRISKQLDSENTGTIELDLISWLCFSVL

[2] = biological target: Large T antigen (Simian virus 40, UniProt P03070); assay type: functional, Betapolyomavirus macacae;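 also: Confirmatory-stage PubChem screen for compounds that inhibit SV40 T antigen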
Large T antigen, sequence (P03070 whole entry): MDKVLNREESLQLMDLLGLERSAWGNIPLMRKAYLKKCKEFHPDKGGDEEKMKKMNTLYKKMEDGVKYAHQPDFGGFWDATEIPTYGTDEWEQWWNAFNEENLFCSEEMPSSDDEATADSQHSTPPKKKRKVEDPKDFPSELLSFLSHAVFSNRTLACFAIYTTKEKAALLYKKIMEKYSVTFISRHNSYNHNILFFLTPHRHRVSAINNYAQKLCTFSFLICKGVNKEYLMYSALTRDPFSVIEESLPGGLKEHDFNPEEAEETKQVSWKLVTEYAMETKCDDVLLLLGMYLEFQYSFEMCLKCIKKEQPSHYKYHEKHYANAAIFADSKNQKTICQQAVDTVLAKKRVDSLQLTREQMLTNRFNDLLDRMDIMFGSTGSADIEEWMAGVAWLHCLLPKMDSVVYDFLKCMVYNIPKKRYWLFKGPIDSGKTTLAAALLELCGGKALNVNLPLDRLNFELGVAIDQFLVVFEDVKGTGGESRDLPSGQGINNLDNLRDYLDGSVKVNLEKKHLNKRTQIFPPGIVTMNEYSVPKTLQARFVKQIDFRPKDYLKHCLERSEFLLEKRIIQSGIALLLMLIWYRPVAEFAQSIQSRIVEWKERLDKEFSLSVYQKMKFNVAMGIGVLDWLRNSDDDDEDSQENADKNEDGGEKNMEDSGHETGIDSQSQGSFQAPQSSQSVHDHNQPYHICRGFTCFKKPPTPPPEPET

[3] = biological target: T2, Voltage-gated N-type calcium channel alpha-1B subunit/Amyloid beta A4 precursor protein-binding family A member 1 (Homo sapiens, UniProt Q00975+Q02410); assay type: protein assay
T2 sequence (Q00975 whole entry): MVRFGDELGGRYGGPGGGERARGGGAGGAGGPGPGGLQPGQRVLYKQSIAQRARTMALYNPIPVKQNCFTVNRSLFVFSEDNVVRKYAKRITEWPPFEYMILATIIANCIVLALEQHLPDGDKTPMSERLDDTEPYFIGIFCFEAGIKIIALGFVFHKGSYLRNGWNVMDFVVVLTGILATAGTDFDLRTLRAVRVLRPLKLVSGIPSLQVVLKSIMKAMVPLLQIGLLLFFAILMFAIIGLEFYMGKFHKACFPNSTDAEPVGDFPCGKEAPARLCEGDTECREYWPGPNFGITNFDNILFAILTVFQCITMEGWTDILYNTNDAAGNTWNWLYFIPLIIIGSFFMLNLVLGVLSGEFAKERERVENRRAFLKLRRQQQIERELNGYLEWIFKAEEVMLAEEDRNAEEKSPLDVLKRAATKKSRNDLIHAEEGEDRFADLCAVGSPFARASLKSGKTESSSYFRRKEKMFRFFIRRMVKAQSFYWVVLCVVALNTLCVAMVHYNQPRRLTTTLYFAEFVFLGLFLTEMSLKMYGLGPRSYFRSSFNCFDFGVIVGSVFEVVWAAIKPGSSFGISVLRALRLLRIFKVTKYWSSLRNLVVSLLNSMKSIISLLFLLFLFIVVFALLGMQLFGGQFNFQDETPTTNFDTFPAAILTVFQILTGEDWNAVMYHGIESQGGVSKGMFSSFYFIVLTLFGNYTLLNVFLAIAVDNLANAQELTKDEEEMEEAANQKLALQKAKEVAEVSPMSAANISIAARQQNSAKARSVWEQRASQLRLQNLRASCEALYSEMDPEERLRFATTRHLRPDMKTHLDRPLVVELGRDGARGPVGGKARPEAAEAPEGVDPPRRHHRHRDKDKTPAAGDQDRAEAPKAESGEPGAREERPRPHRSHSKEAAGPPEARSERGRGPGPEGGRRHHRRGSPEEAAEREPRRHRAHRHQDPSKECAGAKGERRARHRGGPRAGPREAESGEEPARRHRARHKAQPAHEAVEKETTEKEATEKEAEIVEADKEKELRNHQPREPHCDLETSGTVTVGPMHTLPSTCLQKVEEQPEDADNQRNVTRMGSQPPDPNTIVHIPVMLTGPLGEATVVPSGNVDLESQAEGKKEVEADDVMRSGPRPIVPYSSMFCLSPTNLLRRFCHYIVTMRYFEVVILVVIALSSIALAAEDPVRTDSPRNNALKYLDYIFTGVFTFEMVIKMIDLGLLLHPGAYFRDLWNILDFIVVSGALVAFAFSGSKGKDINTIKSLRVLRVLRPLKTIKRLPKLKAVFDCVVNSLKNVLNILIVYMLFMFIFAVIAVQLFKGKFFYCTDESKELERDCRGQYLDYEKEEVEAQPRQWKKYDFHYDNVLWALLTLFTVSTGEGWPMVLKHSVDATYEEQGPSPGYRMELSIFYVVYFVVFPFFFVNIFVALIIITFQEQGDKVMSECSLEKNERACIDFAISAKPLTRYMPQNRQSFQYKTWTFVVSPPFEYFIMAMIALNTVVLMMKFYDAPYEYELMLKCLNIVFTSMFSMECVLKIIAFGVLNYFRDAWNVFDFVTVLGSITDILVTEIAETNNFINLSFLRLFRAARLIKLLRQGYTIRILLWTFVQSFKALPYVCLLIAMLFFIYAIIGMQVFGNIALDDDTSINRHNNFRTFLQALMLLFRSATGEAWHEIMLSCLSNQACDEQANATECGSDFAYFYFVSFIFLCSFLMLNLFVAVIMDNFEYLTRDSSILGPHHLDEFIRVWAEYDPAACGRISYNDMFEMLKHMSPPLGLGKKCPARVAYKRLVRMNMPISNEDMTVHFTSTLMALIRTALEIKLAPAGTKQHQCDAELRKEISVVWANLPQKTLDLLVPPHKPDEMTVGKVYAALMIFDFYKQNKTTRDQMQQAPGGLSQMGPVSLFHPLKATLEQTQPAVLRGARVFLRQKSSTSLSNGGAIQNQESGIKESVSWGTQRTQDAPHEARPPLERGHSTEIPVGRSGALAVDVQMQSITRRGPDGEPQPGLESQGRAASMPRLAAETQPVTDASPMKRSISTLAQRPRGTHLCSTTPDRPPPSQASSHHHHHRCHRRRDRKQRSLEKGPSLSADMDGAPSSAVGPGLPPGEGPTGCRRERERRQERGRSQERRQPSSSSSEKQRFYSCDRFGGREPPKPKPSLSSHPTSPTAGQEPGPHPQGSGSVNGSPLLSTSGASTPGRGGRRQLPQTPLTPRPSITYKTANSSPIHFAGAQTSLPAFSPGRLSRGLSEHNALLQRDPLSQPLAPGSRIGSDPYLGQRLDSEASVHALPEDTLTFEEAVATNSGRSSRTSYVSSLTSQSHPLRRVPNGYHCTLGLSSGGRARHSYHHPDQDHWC
T2 sequence (Q02410 whole entry): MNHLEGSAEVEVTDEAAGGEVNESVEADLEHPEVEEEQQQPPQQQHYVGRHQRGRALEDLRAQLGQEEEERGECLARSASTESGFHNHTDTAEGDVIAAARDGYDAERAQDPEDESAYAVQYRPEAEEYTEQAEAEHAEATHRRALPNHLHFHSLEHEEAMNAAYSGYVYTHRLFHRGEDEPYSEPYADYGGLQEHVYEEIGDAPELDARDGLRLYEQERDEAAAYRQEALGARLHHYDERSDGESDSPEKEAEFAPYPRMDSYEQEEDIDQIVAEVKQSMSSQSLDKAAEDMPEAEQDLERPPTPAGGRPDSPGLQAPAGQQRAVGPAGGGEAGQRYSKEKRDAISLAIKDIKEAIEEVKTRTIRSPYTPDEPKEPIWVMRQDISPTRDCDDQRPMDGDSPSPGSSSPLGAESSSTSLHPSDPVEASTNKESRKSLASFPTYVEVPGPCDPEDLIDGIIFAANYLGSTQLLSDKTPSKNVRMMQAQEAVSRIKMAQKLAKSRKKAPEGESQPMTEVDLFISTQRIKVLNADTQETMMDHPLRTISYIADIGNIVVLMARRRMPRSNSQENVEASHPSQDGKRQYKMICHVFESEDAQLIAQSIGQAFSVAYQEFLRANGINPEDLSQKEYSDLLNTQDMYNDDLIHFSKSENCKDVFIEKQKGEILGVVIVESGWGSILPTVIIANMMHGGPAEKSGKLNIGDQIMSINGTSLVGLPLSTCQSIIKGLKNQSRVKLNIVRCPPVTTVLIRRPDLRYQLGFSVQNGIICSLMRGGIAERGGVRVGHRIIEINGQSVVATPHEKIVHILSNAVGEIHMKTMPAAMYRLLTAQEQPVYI

[4] = biological target: T3, Zinc finger protein mex-5 (Caenorhabditis elegans, UniProt Q9XUB2); assay: potency of MEX-5 RNA-binding blockers – biochemical, C. elegans, fluorescence polarization, dose response (AID 1960)
T3 sequence (Q9XUB2 whole entry): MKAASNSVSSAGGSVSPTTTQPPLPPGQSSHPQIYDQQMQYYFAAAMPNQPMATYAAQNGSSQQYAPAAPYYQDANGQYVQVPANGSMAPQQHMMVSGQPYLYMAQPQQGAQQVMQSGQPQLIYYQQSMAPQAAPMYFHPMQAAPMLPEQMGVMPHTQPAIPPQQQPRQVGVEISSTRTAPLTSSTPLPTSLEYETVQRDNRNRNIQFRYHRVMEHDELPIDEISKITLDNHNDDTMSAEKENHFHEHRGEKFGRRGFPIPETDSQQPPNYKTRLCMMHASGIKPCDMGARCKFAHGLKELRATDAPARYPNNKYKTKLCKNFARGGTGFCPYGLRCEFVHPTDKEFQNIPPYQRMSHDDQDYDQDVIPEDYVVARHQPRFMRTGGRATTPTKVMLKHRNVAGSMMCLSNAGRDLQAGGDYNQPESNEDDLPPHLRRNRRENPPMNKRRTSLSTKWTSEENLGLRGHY

[5] = biological target: T2, Voltage-gated N-type calcium channel alpha-1B subunit/Amyloid beta A4 precursor protein-binding family A member 1; assay type: protein assay; remark: listed apart in the source
[6] = biological target: T4, RNA-binding protein pos-1 (Caenorhabditis elegans, UniProt G5EF15); assay: disruptors of C. elegans POS-1 RNA interaction – biochemical, fluorescence polarization, dose response (AID 1964);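 also: purified POS-1 fused to maltose binding protein made in E. coli; potency of compounds blocking POS-1 binding to fluorescent RNA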
T4 sequence (G5EF15 whole entry): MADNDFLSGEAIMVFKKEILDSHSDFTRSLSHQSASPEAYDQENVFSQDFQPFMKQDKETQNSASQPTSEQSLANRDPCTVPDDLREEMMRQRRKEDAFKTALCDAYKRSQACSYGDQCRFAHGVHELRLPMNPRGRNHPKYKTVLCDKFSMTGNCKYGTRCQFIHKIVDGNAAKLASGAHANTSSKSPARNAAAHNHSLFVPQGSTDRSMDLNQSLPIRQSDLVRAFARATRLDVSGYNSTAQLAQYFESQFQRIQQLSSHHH

[7] = NIH-3T3 fibroblast cytotoxicity, dose response, cytotoxicity control, cell-based, fluorescence, Alamar Blue, secondary assay (AID 2327); assay type: functional;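 also: NIH-3T3 mouse fibroblasts cultured with fluconazole at 8 µg/mL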
[8] = fluconazole-exposed Candida albicans growth modulators – fluorescence, retest, confirmation (AID 2467); assay type: functional, cell-based
[9] = biological target: Genome polyprotein (dengue virus type 2, UniProt P29990); assay: flavivirus cap methylation enzyme inhibition – biochemical, confirmation dose response, primary screen (AID 588689); assay type: functional
Genome polyprotein, sequence (P29990 2492-3391 limits assumed): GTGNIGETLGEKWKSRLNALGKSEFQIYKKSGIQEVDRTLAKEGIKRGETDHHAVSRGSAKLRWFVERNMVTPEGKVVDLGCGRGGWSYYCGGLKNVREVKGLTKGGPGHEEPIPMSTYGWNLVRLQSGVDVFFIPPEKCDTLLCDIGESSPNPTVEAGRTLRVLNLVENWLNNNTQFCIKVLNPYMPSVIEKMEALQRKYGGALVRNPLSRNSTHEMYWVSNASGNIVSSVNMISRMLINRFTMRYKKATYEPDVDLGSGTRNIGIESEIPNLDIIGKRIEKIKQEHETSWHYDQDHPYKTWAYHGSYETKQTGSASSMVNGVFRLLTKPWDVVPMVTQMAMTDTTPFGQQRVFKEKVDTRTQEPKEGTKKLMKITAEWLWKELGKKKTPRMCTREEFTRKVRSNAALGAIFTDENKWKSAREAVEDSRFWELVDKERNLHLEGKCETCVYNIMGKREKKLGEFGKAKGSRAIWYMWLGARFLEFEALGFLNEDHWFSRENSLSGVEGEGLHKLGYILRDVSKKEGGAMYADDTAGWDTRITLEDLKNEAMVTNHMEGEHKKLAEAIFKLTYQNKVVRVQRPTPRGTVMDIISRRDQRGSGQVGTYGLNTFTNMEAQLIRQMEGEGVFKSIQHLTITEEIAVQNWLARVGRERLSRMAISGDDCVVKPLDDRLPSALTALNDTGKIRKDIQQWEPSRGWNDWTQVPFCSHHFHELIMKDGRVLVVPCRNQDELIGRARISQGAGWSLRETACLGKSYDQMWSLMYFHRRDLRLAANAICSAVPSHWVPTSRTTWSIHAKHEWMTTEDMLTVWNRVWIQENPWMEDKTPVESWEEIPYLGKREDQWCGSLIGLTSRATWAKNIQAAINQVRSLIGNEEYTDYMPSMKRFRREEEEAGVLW

[10] = biological target: FAD-linked sulfhydryl oxidase ALR (Homo sapiens, UniProt P55789); assay: ALR-catalysed DTT oxidation blockers – biochemical, H2O2 detection, luminescence, cherry-pick, dose response (AID 493248)
FAD-linked sulfhydryl oxidase ALR, sequence (P55789 whole entry): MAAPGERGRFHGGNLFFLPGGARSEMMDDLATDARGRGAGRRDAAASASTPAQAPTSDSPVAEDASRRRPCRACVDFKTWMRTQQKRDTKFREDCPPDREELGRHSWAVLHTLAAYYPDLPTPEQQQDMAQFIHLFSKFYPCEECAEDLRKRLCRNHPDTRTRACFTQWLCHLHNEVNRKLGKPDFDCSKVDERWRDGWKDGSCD

[11] = tested on: BJ; assay: cells; assay type: functional, cell-based; conditions: Homo sapiens
[12] = tested on: BJ; assay: BJ-TERT-LT-ST fibroblast viability loss – cell-based, RAS-independent, luminescence, dose response (AID 1935); assay type: functional; conditions: Homo sapiens;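 also: BJ fibroblasts immortalized with TERT plus LT and ST oncogenes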
[13] = tested on: BJ; assay: BJ-TERT fibroblast viability loss – cell-based, RAS-independent, luminescence, dose response (AID 1933); assay type: functional; conditions: Homo sapiens
[14] = DRD fibroblast viability loss – cell-based, non-viral oncogenic, luminescence, dose response (AID 1934); assay type: functional; conditions: Homo sapiens

SMILES: Cc1nc(C)n(CC(O)COc2ccc(C(=O)c3ccccc3)cc2)n1 (stereo unspecified)
IC50 [1]: 13.4 µM (not active)

SMILES: CN(C)C(=O)c1cn(-c2ccccc2)nc1-c1cccs1
EC50 [7]: 24 µM (inconclusive)
EC50 [8]: 7.34 µM (active)

SMILES: Cc1ccc(NC(=O)c2cccc(C(=O)Nc3ccc(C)cc3C(=O)O)c2)c(C(=O)O)c1
IC50 [9]: 22.3 µM (active)
AC50 [10]: 2.11 µM (active)

SMILES: CCC(=O)c1ccc(Oc2ccc(C(=O)c3ccc(C)cc3)cc2[N+](=O)[O-])cc1
EC50 [11]: > 150 µM (not active)
EC50 [12]: > 150 µM (not active)
EC50 [13]: > 150 µM (not active)
EC50 [14]: > 150 µM (not active)

Next, values leading:

IC50 [1]: 1.31 µM (not active)
SMILES: COc1ccc(OC)c(C(c2nnnn2C2CCCC2)N2CCN(c3ccccc3F)CC2)c1 (stereo unspecified)

IC50 [2]: > 100 µM (active)
IC50 [3]: > 56.8 µM (not active)
EC50 [4]: 17 µM (active)
IC50 [5]: 7.43 µM (active)
EC50 [6]: 22.1 µM (active)
SMILES: COC/C=C/C1=CC2=CC(=O)C(C)(OC(=O)CCC(=O)OC)C(=O)C2=CO1 (stereo unspecified)

IC50 [1]: 5.14 µM (not active)
SMILES: NC(=O)c1ccc(-n2nnnc2SCC(=O)Nc2ccccc2-c2ccccc2)cc1
